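Results reflect a 48-hour exposure of cells in 96-well plates to compound at five concentrations. The concentration for 50% growth inhibition is given as GI50.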 The source made the active and inactive calls. No stated cut-off is given here; in the data, active = GI50 up to about 1.1 µM and inactive = higher.
Assays:
Test in all cases: NCI tumour cell line growth inhibition, 48 h
SF-268 = tested on: SF-268
SR = tested on: SR
KM-20L2 = tested on: KM-20L2
UO-31 = tested on: UO-31
IGROV-1 = tested on: IGROV-1
A549 = tested on: A549
HT-29 = tested on: HT-29
NCI-H23 = tested on: NCI-H23
HCC 2998 = tested on: HCC 2998
NCI-H460 = tested on: NCI-H460
NCI-H226 = tested on: NCI-H226
SW-620 = tested on: SW-620
A498 = tested on: A498
K562 = tested on: K562
Hs-578T = tested on: Hs-578T
T47D = tested on: T47D
MCF7 = tested on: MCF7
MDA-N = tested on: MDA-N

Measured: GI50

Cc1ccc(NC(=O)/C(=N/NC(=O)C[N+](C)(C)C)c2nc3ccccc3nc2O)cc1
inactive: SF-268 > 100 µM | SR > 100 µM | KM-20L2 > 100 µM | UO-31 > 100 µM | IGROV-1 > 100 µM | A549 > 100 µM | HT-29 91.4 µM | NCI-H23 > 100 µM | HCC 2998 > 100 µM | NCI-H460 > 100 µM | NCI-H226 > 100 µM | SW-620 15.7 µM | A498 > 100 µM

CC(=O)OCC1OC(Sc2ccccn2)C=CC1OC(C)=O (stereo not given)
inactive: SF-268 > 100 µM | SR > 100 µM | KM-20L2 > 100 µM | UO-31 > 100 µM | IGROV-1 > 100 µM | A549 > 100 µM | HT-29 > 100 µM | NCI-H23 > 100 µM | HCC 2998 > 100 µM | NCI-H226 > 100 µM | SW-620 > 100 µM | A498 > 100 µM | K562 > 100 µM

On1c(-c2ccccc2)c(-c2ccccc2N2CCCC2)c2ccccc21
inactive: SF-268 > 100 µM | SR > 100 µM | KM-20L2 > 100 µM | IGROV-1 > 100 µM | A549 > 100 µM | HT-29 > 100 µM | NCI-H23 > 100 µM | HCC 2998 > 100 µM | NCI-H460 > 100 µM | NCI-H226 > 100 µM | SW-620 > 100 µM | A498 > 100 µM | K562 > 100 µM

COc1cc(C2C(Cl)C(=O)N2NC(=O)c2ccc(N)cc2)ccc1O (stereo not given)
inactive: KM-20L2 63.7 µM | UO-31 > 100 µM | IGROV-1 56.8 µM | A549 > 100 µM | HT-29 23.4 µM | NCI-H23 20.9 µM | HCC 2998 20.2 µM | NCI-H460 22.9 µM | NCI-H226 95.7 µM | SW-620 17.2 µM | A498 > 100 µM | K562 31.3 µM

Brc1ccc(N2C[N+](c3ccc(Br)cc3)=NC(c3ccccc3)=N2)cc1.[O-][Cl+3]([O-])([O-])[O-]
inactive: SF-268 99.3 µM | KM-20L2 70.5 µM | UO-31 > 100 µM | IGROV-1 > 100 µM | A549 75.9 µM | HT-29 36.7 µM | NCI-H23 46.9 µM | HCC 2998 > 100 µM | NCI-H460 > 100 µM | NCI-H226 > 100 µM | SW-620 > 100 µM | A498 > 100 µM | K562 31.3 µM

O=c1c(NO)c([N+](=O)[O-])cnn1-c1ccccc1
inactive: SF-268 12.5 µM | SR 2.78 µM | KM-20L2 7.19 µM | UO-31 5.27 µM | IGROV-1 21.1 µM | T47D 1.83 µM | A549 18.5 µM | HT-29 2.6 µM | MCF7 2.55 µM | NCI-H23 6.55 µM | HCC 2998 5.47 µM | NCI-H460 4.88 µM | NCI-H226 7.87 µM | SW-620 1.75 µM | MDA-N 2.29 µM | A498 20.6 µM
active: Hs-578T < 0.01 µM | K562 0.908 µM

COC(=O)/C(=C/c1ccc(OC)cc1)C(C(=O)O)=C1CCCCC1
inactive: SR > 100 µM | KM-20L2 > 100 µM | UO-31 > 100 µM | IGROV-1 > 100 µM | A549 > 100 µM | HT-29 > 100 µM | NCI-H23 > 100 µM | NCI-H460 > 100 µM | NCI-H226 > 100 µM | SW-620 > 100 µM | A498 > 100 µM | K562 > 100 µM

O=C1C2ON3c4ccccc4C(=O)C3(c3ccccc3)C2C(=O)N1c1ccccc1 (stereo not given)
inactive: SF-268 > 100 µM | SR > 100 µM | KM-20L2 > 100 µM | UO-31 > 100 µM | IGROV-1 > 100 µM | A549 > 100 µM | HT-29 > 100 µM | NCI-H23 > 100 µM | HCC 2998 > 100 µM | NCI-H226 > 100 µM | SW-620 > 100 µM | A498 > 100 µM | K562 > 100 µM

COC(=O)[C@]12CSCN1C(=O)C(C(C)=O)=NN2C(=O)[C@](OC)(c1ccccc1)C(F)(F)F
inactive: SF-268 > 100 µM | SR > 10 µM | KM-20L2 > 100 µM | UO-31 > 100 µM | IGROV-1 > 100 µM | A549 > 100 µM | HT-29 > 100 µM | NCI-H23 > 100 µM | NCI-H460 > 100 µM | NCI-H226 88.9 µM | SW-620 > 100 µM | K562 > 100 µM

C=CC1=C(C)/C(=C/C2=NC(=C\c3[nH]c(CC4NC(=O)C(C)/C4=C\C)c(C)c3CCC(=O)O)/C(CC(=O)O)=C2C)NC1=O (stereo not given)
inactive: SF-268 > 100 µM | SR > 100 µM | KM-20L2 > 100 µM | UO-31 > 100 µM | IGROV-1 > 100 µM | A549 > 100 µM | HT-29 > 100 µM | NCI-H23 > 100 µM | HCC 2998 > 100 µM | NCI-H460 > 100 µM | NCI-H226 > 100 µM | SW-620 > 100 µM | K562 > 100 µM

CN1C2(c3ccccc3)c3c(-c4ccccc4)sc(-c4ccccc4)c3C1(c1ccccc1)C1C(=O)N(c3ccccc3)C(=O)C12 (stereo not given)
inactive: SF-268 > 100 µM | KM-20L2 > 100 µM | UO-31 > 100 µM | IGROV-1 > 100 µM | A549 > 100 µM | HT-29 > 100 µM | NCI-H23 > 100 µM | HCC 2998 > 100 µM | NCI-H460 > 100 µM | NCI-H226 > 100 µM | SW-620 > 100 µM | A498 > 100 µM | K562 > 100 µM

C=CC1(CC)/C(=N\O)C(CC)(CC)C(=O)N1O (stereo not given)
inactive: SR > 100 µM | KM-20L2 > 100 µM | UO-31 > 100 µM | IGROV-1 > 100 µM | A549 > 100 µM | HT-29 > 100 µM | NCI-H23 > 100 µM | HCC 2998 > 100 µM | NCI-H460 > 100 µM | NCI-H226 > 100 µM | SW-620 > 100 µM | A498 > 100 µM | K562 > 100 µM

Cc1c(-c2nnc(-c3ccccc3)o2)c(=O)n(-c2ccccc2)n1C
inactive: SF-268 > 100 µM | SR > 100 µM | KM-20L2 > 100 µM | UO-31 > 100 µM | IGROV-1 > 100 µM | A549 > 100 µM | HT-29 > 100 µM | NCI-H23 > 100 µM | HCC 2998 > 100 µM | NCI-H460 > 100 µM | NCI-H226 > 100 µM | SW-620 > 100 µM | A498 > 100 µM | K562 > 100 µM

CS(=O)(=O)c1ccc(-c2cc(-c3ccc(S(C)(=O)=O)cc3)[n+](-c3cc(-c4ccccc4)c([O-])c(-c4ccccc4)c3)c(-c3ccc(S(C)(=O)=O)cc3)c2)cc1
inactive: SF-268 > 100 µM | SR > 100 µM | KM-20L2 > 100 µM | UO-31 > 100 µM | IGROV-1 > 100 µM | A549 > 100 µM | HT-29 > 100 µM | NCI-H23 > 100 µM | HCC 2998 > 100 µM | NCI-H460 > 100 µM | NCI-H226 > 100 µM | SW-620 > 100 µM | A498 44.7 µM | K562 > 100 µM

O=c1ccn([C@H]2CSC[C@@H](CO)C2)c(=O)[nH]1
inactive: SF-268 > 100 µM | KM-20L2 > 100 µM | UO-31 > 100 µM | IGROV-1 > 100 µM | A549 > 100 µM | HT-29 > 100 µM | NCI-H23 > 100 µM | HCC 2998 > 100 µM | NCI-H460 > 100 µM | NCI-H226 > 100 µM | SW-620 > 100 µM | A498 > 100 µM | K562 > 100 µM

CN(C)c1ccc(/C=N/C23CC4CC(CC(C4)C2)C3)cc1
inactive: SF-268 > 100 µM | SR > 100 µM | KM-20L2 > 100 µM | UO-31 > 100 µM | IGROV-1 > 100 µM | A549 > 100 µM | HT-29 > 100 µM | NCI-H23 > 100 µM | HCC 2998 > 100 µM | NCI-H460 > 100 µM | NCI-H226 > 100 µM | SW-620 > 100 µM | A498 > 100 µM | K562 > 100 µM

Cc1ccccc1-n1c(=S)[nH]c2c(sc(=O)n2-c2ccccc2C)c1=O
inactive: SF-268 > 100 µM | SR > 100 µM | KM-20L2 > 100 µM | UO-31 > 100 µM | IGROV-1 > 100 µM | A549 > 100 µM | HT-29 > 100 µM | NCI-H23 > 100 µM | HCC 2998 > 100 µM | NCI-H460 > 100 µM | NCI-H226 > 100 µM | SW-620 > 100 µM | A498 > 100 µM | K562 > 100 µM

CC(=O)OC(C)(C)C1CCC(C)(C(O)COc2ccc(CCNC(=O)c3ccccc3)cc2)O1 (stereo not given)
inactive: SF-268 > 100 µM | SR 47.1 µM | KM-20L2 73.1 µM | UO-31 33.7 µM | IGROV-1 > 100 µM | A549 51.1 µM | HT-29 > 100 µM | NCI-H23 > 100 µM | NCI-H460 61.8 µM | SW-620 > 100 µM

CN1C(c2ccccc2)CC(O)CC1c1ccccc1 (stereo not given)
inactive: SF-268 > 100 µM | SR > 100 µM | KM-20L2 > 100 µM | UO-31 > 100 µM | IGROV-1 > 100 µM | A549 > 100 µM | HT-29 > 100 µM | NCI-H23 > 100 µM | NCI-H460 > 100 µM | NCI-H226 > 100 µM | SW-620 > 100 µM | A498 > 100 µM | K562 > 100 µM

From ChEMBL document CHEMBL1201862, “PubChem BioAssay data set” (2004)
